These results are taken from patent publication US10457655B2, “Compounds and compositions for inhibition of FASN” (FORMA Therapeutics, Inc., priority 2013, dated 2019).

Sequence of FASN enzyme (P49327 whole entry): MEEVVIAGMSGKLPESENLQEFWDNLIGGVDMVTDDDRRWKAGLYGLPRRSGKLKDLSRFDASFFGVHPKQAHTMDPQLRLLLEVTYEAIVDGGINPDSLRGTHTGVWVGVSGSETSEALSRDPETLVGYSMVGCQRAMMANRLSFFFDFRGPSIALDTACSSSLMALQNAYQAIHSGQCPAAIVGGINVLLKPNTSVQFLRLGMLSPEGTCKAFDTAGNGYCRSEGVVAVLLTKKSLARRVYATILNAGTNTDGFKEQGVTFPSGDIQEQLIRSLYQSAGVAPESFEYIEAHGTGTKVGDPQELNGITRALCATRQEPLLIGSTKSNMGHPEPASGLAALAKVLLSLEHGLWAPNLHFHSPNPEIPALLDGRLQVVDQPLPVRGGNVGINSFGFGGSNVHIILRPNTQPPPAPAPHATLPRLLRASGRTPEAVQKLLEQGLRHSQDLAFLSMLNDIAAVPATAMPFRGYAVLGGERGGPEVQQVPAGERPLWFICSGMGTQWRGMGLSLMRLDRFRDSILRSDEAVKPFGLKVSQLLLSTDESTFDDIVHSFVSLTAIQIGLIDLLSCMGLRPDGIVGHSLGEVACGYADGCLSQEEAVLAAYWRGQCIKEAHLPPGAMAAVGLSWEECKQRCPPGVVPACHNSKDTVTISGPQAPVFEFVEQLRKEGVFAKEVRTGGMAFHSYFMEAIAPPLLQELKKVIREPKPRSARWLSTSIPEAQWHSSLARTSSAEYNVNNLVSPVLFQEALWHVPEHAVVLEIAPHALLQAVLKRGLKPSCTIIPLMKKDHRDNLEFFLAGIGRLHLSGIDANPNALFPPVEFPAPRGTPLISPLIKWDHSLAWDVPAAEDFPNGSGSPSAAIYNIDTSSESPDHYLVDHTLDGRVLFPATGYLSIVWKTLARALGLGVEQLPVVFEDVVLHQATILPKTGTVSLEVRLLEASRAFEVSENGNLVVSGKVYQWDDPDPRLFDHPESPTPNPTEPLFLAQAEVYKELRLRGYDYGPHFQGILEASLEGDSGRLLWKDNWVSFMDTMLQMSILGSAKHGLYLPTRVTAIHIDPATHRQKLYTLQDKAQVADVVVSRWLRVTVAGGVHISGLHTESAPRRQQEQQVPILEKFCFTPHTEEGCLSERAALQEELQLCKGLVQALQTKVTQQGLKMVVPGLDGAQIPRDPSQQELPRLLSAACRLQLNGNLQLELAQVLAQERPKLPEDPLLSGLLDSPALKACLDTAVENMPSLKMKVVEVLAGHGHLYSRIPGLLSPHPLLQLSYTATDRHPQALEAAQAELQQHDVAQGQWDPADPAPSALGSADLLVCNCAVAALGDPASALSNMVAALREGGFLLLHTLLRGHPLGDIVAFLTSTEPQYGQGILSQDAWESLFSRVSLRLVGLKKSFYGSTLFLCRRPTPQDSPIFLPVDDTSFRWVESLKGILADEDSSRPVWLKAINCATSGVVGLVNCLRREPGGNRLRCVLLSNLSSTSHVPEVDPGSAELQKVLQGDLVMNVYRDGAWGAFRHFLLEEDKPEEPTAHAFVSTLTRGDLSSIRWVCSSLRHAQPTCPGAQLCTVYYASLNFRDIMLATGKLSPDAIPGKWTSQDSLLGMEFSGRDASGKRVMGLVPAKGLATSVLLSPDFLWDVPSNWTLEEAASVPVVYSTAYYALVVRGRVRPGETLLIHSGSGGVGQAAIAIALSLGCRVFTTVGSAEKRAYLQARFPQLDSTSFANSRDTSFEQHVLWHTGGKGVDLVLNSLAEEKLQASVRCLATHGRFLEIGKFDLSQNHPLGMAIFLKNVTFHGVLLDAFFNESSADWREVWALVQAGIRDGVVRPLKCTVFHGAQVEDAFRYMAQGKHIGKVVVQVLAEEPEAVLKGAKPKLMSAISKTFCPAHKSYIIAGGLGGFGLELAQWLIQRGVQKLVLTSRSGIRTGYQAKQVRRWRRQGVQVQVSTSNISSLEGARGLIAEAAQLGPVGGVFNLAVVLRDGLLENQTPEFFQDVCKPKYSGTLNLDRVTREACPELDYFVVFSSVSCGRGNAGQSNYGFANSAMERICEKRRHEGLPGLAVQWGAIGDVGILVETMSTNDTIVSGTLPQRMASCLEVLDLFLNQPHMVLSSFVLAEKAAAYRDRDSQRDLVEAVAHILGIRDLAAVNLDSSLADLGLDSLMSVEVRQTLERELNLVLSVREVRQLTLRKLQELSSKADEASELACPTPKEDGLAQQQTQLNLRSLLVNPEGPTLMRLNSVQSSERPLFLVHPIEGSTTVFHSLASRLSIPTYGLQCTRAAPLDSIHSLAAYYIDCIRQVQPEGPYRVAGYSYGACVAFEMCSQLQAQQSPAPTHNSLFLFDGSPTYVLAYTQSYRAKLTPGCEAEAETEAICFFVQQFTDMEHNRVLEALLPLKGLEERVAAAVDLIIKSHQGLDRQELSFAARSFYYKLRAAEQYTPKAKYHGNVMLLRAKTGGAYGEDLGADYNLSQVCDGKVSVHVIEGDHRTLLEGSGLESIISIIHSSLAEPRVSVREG

One experiment concerns the target FASN enzyme (Homo sapiens, UniProt P49327). Briefly: Enzymatic Assay for FASN Inhibitors. The class given is biochemical.
Settings: not given
The essentials: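 40 nM FASN preincubated with compound 60 min at 25° C in HEPES pH 7.3 buffer with 0.04% Triton X-100. Then 20 μM acetyl-CoA, 60 μM malonyl-CoA and 100 μM NADPH added for 90 min, quenched with CPM thiol probe; fluorescence 360/530 nm, IC50 by four-parameter fit.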
Take `O=C(c1ccc(-c2ccc3cc(F)ccc3n2)c(F)c1F)N1CCN(C(=O)C2(O)CC2)CC1` [1-[(4-{[2,3-difluoro-4-(6-fluoroquinolin-2-yl)phenyl]carbonyl}piperazin-1-yl)carbonyl]cyclopropan-1-ol]: the IC50 – broadly, the point on the concentration scale where inhibition reaches its midpoint – is less than 0.5 µM.
Same read-out and setting: in the case of `CN1C(=O)Cc2c(-c3ccc(C(=O)N4CCN(C(=O)C5(O)CC5)CC4)cc3)cccc21` [4-{4-[4-(1-hydroxycyclopropanecarbonyl)piperazine-1-carbonyl]phenyl}-1-methyl-2,3-dihydro-1H-indol-2-one] it was less than 0.5 µM; in that of `O=C(c1ccc(-c2nc3ccc(F)cc3o2)cc1)N1CCN(C(=O)C2(O)CC2)CC12CC2` [1-{4-[4-(6-fluoro-1,3-benzoxazol-2-yl)benzoyl]-4,7-diazaspiro[2.5]octane-7-carbonyl}cyclopropan-1-ol], less than 0.5 µM.
On the same count and under the same terms, in the case of `C[C@@H]1CN(C(=O)c2ccc(-c3nc4ccc(F)cc4o3)cc2)C[C@H](C)N1C(=O)C1(N)CC1` [1-[(2S,6R)-4-[4-(6-fluoro-1,3-benzoxazol-2-yl)benzoyl]-2,6-dimethylpiperazine-1-carbonyl]cyclopropan-1-amine] it was less than 0.5 µM; in that of `O=C(c1ccc(N2CCCc3ccccc32)cc1)N1CCN(C(=O)C2(O)CC2)CC1`, less than 0.5 µM.
The same measure, in the same setting: for `Cn1cc2ccc(-c3cc(F)c(C(=O)N4CCN(C(=O)C5(N)CC5)CC4)c(F)c3)cc2n1` [1-{4-[2,6-difluoro-4-(2-methyl-2H-indazol-6-yl)benzoyl]piperazine-1-carbonyl}cyclopropan-1-amine] the value was less than 0.5 µM.
`Nc1n[nH]c2cc(-c3ccc(C(=O)N4CCN(C(=O)C5(O)CC5)CC4)cc3)ccc12` [1-{4-[4-(3-amino-1H-indazol-6-yl)benzoyl]piperazine-1-carbonyl}cyclopropan-1-ol] yielded an IC50 of less than 0.5 µM.
Still for that read-out and setting: in the case of `O=C(Nc1cccc(-c2ccc(C(=O)N3CCN(C(=O)C4(O)CC4)CC3)cc2)c1)C1CCCC1` [N-(3-{4-[4-(1-hydroxycyclopropanecarbonyl)piperazine-1-carbonyl]phenyl}phenyl)cyclopentanecarboxamide] it was less than 0.5 µM; in that of `Cc1nn(-c2ccc(C(=O)N3CCN(C(=O)C4(O)CC4)CC3)cc2)c2ccccc12` [(4-(1-hydroxycyclopropane-1-carbonyl)piperazin-1-yl)(4-(3-methyl-1H-indazol-1-yl)phenyl)methanone], less than 0.5 µM; in that of `O=C(c1ccc(N2CCc3ccccc32)cc1)N1CCN(C(=O)C2(O)CC2)CC1` [1-{4-[4-(2,3-dihydro-1H-indol-1-yl)benzoyl]piperazine-1-carbonyl}cyclopropan-1-ol], less than 0.5 µM.
On the same count and under the same terms, for `Cn1ncc2ccc(-c3ccc(C(=O)N4CCN(C(=O)C5(N)CCC5)CC4)c(F)c3)cc21` [1-{4-[2-fluoro-4-(1-methyl-1H-indazol-6-yl)benzoyl]piperazine-1-carbonyl}cyclobutan-1-amine] the value was less than 0.5 µM.
Same read-out and setting: for `O=C(c1ccc(-c2nc3ccccn3c2Cl)cc1F)N1CCN(C(=O)C2(O)CC2)CC1` [1-[4-(4-{3-chloroimidazo[1,2-a]pyridin-2-yl}-2-fluorobenzoyl)piperazine-1-carbonyl]cyclopropan-1-ol] the value was less than 0.5 µM; for `C[C@H]1CN(C(=O)c2ccc(-c3ccc(Cl)cc3F)cc2)CCN1C(=O)C1(O)CC1`, less than 0.5 µM.
Regarding `Cc1n[nH]c2cc(-c3ccc(C(=O)N4CCN(C(=O)C5(O)CC5)CC4)cc3)ccc12` [1-{4-[4-(3-methyl-1H-indazol-6-yl)benzoyl]piperazine-1-carbonyl}cyclopropan-1-ol], the IC50 is less than 0.5 µM.
With `Cc1cc2ccccc2n1-c1ccc(C(=O)N2CCN(C(=O)C3(N)CC3)CC2)c(F)c1` [1-{4-[2-fluoro-4-(2-methyl-1H-indol-1-yl)benzoyl]piperazine-1-carbonyl}cyclopropan-1-amine], the IC50 was less than 0.5 µM.
The same measure, in the same setting: for `CNC(=O)c1cccc(-c2ccc(C(=O)N3CCN(C(=O)C4(O)CC4)CC3)cc2)n1` [6-{4-[4-(1-hydroxycyclopropanecarbonyl)piperazine-1-carbonyl]phenyl}-N-methylpyridine-2-carboxamide] the value was less than 0.5 µM.
Same read-out and setting: in the case of `O=C(c1ccc(-c2ccccc2)cc1)N1CCN(C(=O)C2(O)CC2)CC1` [1-({4-[(4-phenylphenyl)carbonyl]piperazin-1-yl}carbonyl)cyclopropan-1-ol] it was less than 0.5 µM; in that of `Nc1cc(-c2cccc(-c3ccc(C(=O)N4CCN(C(=O)C5(O)CC5)CC4)cc3)c2)n[nH]1` [1-(4-{4-[3-(5-amino-1H-pyrazol-3-yl)phenyl]benzoyl}piperazine-1-carbonyl)cyclopropan-1-ol], less than 0.5 µM; in that of `O=C(c1ccc(-c2n[nH]c3c(F)cccc23)cc1F)N1CCN(C(=O)C2(O)CC2)CC1` [1-{4-[2-fluoro-4-(7-fluoro-1H-indazol-3-yl)benzoyl]piperazine-1-carbonyl}cyclopropan-1-ol], less than 0.5 µM.
On the same count and under the same terms, for `O=C(c1ccc(-c2ccc3[nH]c(CO)nc3c2)cc1)N1CCN(C(=O)C2(O)CC2)CC1` [1-(4-{4-[2-(hydroxymethyl)-1H-1,3-benzodiazol-5-yl]benzoyl}piperazine-1-carbonyl)cyclopropan-1-ol] the value was less than 0.5 µM; for `O=C(c1ccc(N2CCc3cc(F)ccc32)cc1)N1CCN(C(=O)C2(O)CC2)CC1` [1-{4-[4-(5-fluoro-2,3-dihydro-1H-indol-1-yl)benzoyl]piperazine-1-carbonyl}cyclopropan-1-ol], less than 0.5 µM.
`Cn1nnc2cc(-c3ccc(C(=O)N4CCN(C(=O)C5(O)CC5)CC4)cc3)c(F)cc21` [1-{4-[4-(6-fluoro-1-methyl-1H-1,2,3-benzotriazol-5-yl)benzoyl]piperazine-1-carbonyl}cyclopropan-1-ol] had an IC50 of less than 0.5 µM.
The same measure, in the same setting: for `Cc1nn(C)c2ccc(-c3ccc(C(=O)N4CCN(C(=O)C5(O)CC5)CC4)cc3F)cc12` [1-{4-[4-(1,3-dimethyl-1H-indazol-5-yl)-3-fluorobenzoyl]piperazine-1-carbonyl}cyclopropan-1-ol] the value was less than 0.5 µM; for `Cc1cc2ccccc2n1-c1ccc(C(=O)N2CCN(C(=O)C3(O)CC3)CC2)c(F)c1` [1-{4-[2-fluoro-4-(2-methyl-1H-indol-1-yl)benzoyl]piperazine-1-carbonyl}cyclopropan-1-ol], less than 0.5 µM; for `Cc1[nH]c2ccccc2c1-c1ccc(C(=O)N2CCN(C(=O)C3(O)CC3)CC2)cc1` [1-{4-[4-(2-methyl-1H-indol-3-yl)benzoyl]piperazine-1-carbonyl}cyclopropan-1-ol], less than 0.5 µM.
Same read-out and setting: for `Cn1cnc2cc(-c3ccc(C(=O)N4CCN(C(=O)C5(O)CC5)CC4(C)C)cc3)ccc21` the value was less than 0.5 µM.
The same measure, in the same setting: in the case of `NC1(C(=O)N2CCN(C(=O)c3ccc(-c4cc(Cl)ccc4F)cc3)CC2)CC1` [1-{4-[4-(5-chloro-2-fluorophenyl)benzoyl]piperazine-1-carbonyl}cyclopropan-1-amine] it was less than 0.5 µM.
`O=C(c1ccc(-c2cccc(S(=O)(=O)C3CC3)c2)cc1F)N1CCN(C(=O)C2(O)CC2)CC1` [1-(4-{4-[3-(cyclopropanesulfonyl)phenyl]-2-fluorobenzoyl}piperazine-1-carbonyl)cyclopropan-1-ol] registered an IC50 of less than 0.5 µM.
On the same count and under the same terms, in the case of `NC1(C(=O)N2CCN(C(=O)c3ccc(-c4n[nH]c5c(F)cccc45)cc3F)CC2)CC1` it was less than 0.5 µM; in that of `Cc1nc2cc(Cl)cc(-c3ccc(C(=O)N4CCN(C(=O)C5(O)CC5)CC4)cc3)c2[nH]1`, less than 0.5 µM; in that of `Cn1cnc2cc(-c3ccc(C(=O)N4CCN(C(=O)C5(O)CC5)CC4)cc3F)ccc21` [1-{4-[3-fluoro-4-(1-methyl-1H-1,3-benzodiazol-5-yl)benzoyl]piperazine-1-carbonyl}cyclopropan-1-ol], less than 0.5 µM.
On the same count and under the same terms, in the case of `O=C(c1ccc(-c2cccc(NS(=O)(=O)CCC(F)(F)F)c2)cc1)N1CCN(C(=O)C2(O)CC2)CC1` [3,3,3-trifluoro-N-(3-{4-[4-(1-hydroxycyclopropanecarbonyl)piperazine-1-carbonyl]phenyl}phenyl)propane-1-sulfonamide] it was less than 0.5 µM.

Staying with this experiment, now noted: FASN enzymatic assay; Table 2-2.
`O=C(c1ccc(-c2cnc3ccc(Cl)cn23)cc1)N1CCN(C(=O)C2(O)CC2)CC1` [1-({4-[(4-{6-chloroimidazo[1,2-a]pyridin-3-yl}phenyl)carbonyl]piperazin-1-yl}carbonyl)cyclopropan-1-ol] displayed an IC50 of 0.5 to 5 µM.
On the same count and under the same terms, in the case of `O=C(c1ccc(-c2ccc3ncccc3c2)nc1)N1CCN(C(=O)C2(O)CC2)CC1` [1-[(4-{[6-(quinolin-6-yl)pyridin-3-yl]carbonyl}piperazin-1-yl)carbonyl]cyclopropan-1-ol] it was 0.5 to 5 µM.
On the same count and under the same terms, in the case of `O=C(c1ccc(-c2cccc(OC(F)(F)F)c2F)cc1)N1CCN(C(=O)C2(O)CC2)CC1` [1-{[4-({4-[2-fluoro-3-(trifluoromethoxy)phenyl]phenyl}carbonyl)piperazin-1-yl]carbonyl}cyclopropan-1-ol] it was 0.5 to 5 µM; in that of `COc1ccc(-c2ccc(C(=O)N3CCN(C(=O)C4(O)CC4)CC3)cc2)c(F)c1` [1-[(4-{[4-(2-fluoro-4-methoxyphenyl)phenyl]carbonyl}piperazin-1-yl)carbonyl]cyclopropan-1-ol], 0.5 to 5 µM; in that of `O=C(c1ccc(-c2ccnc3cc(C(F)(F)F)ccc23)cc1)N1CCN(C(=O)C2(O)CC2)CC1` [1-{[4-({4-[7-(trifluoromethyl)quinolin-4-yl]phenyl}carbonyl)piperazin-1-yl]carbonyl}cyclopropan-1-ol], 0.5 to 5 µM.

Still in this experiment, the particulars now being: FASN enzymatic assay; Table 2-3.
Regarding `Cc1ccc(-c2ccc(C(=O)N3CCN(C(=O)C4(O)CC4)CC3)cc2)cn1` [1-[(4-{[4-(6-methylpyridin-3-yl)phenyl]carbonyl}piperazin-1-yl)carbonyl]cyclopropan-1-ol], the concentration for half-maximal inhibition (IC50) is no less than 5 µM.
On the same count and under the same terms, for `O=C(c1ccc(-c2cc(F)ccc2F)cc1)N1CCN(C(=O)C2(O)CC2)CC1` [1-[(4-{[4-(2,5-difluorophenyl)phenyl]carbonyl}piperazin-1-yl)carbonyl]cyclopropan-1-ol] the value was no less than 5 µM.
In turn, `Cc1ccc(F)cc1-c1ccc(C(=O)N2CCN(C(=O)C3(O)CC3)CC2)cc1` [1-[(4-{[4-(5-fluoro-2-methylphenyl)phenyl]carbonyl}piperazin-1-yl)carbonyl]cyclopropan-1-ol] yielded a half-maximal inhibitory concentration (IC50) of no less than 5 µM.
